According to paper PMC5387716, “Discovery of monocarbonyl curcumin-BTP hybrids as STAT3 inhibitors for drug-sensitive and drug-resistant breast cancer therapy” (Scientific Reports, 2017):

Legend:
[1] = test system: implanted human breast tumors (MCF-7); assay: MCF-7 xenograft in BALB/c nude mice; format: in vivo; conditions: 10 mg/kg ip daily for 21 days
Experimental: The working solution was prepared in a Cremophor and DMSO mixture (10% Cremophor, 10% DMSO and 80% 1 × PBS) to give a 1 mg/ml solution. Athymic BALB/c nude mice (15–18 g) were injected with human breast tumor MCF-7 cells (3 × 10^6 cells in a volume of 0.2 ml) into the subcutaneous tissue of the right auxiliary region of the mice. Three days after the tumor cell inoculation, the mice were randomly sorted into three groups with six mice per group. The tumor-bearing mice were either given a daily 10 mg/kg ip injection of compound 6b or the vehicle. The treatment was initiated when the tumor burden of the mice reached approximately 50 mm^3. The tumor size was measured by caliper three times a week to document tumor growth and calculated by the formula: length × width × width/2, and the body weight was measured and recorded. Therapeutic efficacy was evaluated based on body weight loss, tumor growth inhibition [determined by using calipers and calculated by the formula: tumor inhibit rate (%) = (tumor volCon − tumor volTre)/tumor volCon] × 100. The body weight inhibitory ratio, BI (%) was calculated as BI (%) = (1 −MT/MC) × 100, where MT and MC were the average body weights of the treated and control groups, respectively. On the 22nd day, all mice were killed, and the tumors were segregated, weighed, and stored in −80 °C for later use. The levels of p-STAT3 in tumor tissues prepared from control or mice treated with 6b were analyzed by western blot assay. Apoptosis was evaluated via the TUNEL assay, and the Ki-67 assay was used to assess cancer cell proliferation.

[2] = test system: MCF-7 cells; assay: ROS detection by DCFH-DA flow cytometry, MCF-7; format: cell-based, human; conditions: MCF-7, different concentrations (1, 2, 4 μM), 24 h
Experimental: MCF-7 or MCF-7/DOX cells were seeded at a density of 3 × 10^5 cells per well of a 6-well plate and treated with various concentrations of 6b (0, 1, 2, 4 μM) or 4 μM curcumin for 24 h. DCFH-DA was dissolved in serum-free medium and diluted to a final concentration of 10 μM. After treatment with 6b, the growth media was replaced with serum-free medium containing the probe. After incubation for 20 min at 37 °C, cells were washed with serum-free medium twice, digested by trypsin and resuspended in pre-warmed PBS buffer. The samples were then subjected to a flow cytometry assay using a BD FACSCalibur flow cytometer (Becton & Dickinson Company, Franklin Lakes, NJ).

[3] = test system: PARP, Caspase 9 and Caspase 3; assay: Western blot of cleaved PARP, Caspase 9 and Caspase 3; format: cell-based, human
[4] = test system: MCF-7 cells; assay: Flow cytometry of the cell cycle, MCF-7; format: cell-based, human; conditions: MCF-7, 24 h
Experimental: (§1) MCF-7 or MCF-7/DOX cells were plated in 6-well culture plates (1.5 × 10^5 cells per well). After incubation overnight, various concentrations of 6b or curcumin were added and cells were incubated for 24 h. Cells were harvested, washed with cold PBS, and incubated with pre-cooled 70% ethanol for a minimum of 4 h at 4 °C to fix them. The cells were then centrifuged, carefully aspirated from the supernatant, and re-suspended in a propidium iodide (final concentration, 40 μg/ml) and RNase A (final concentration, 100 μg/ml) solution at a final cell density of 0.5 × 10^6 cells/ml. The suspension was incubated at 37 °C for 30 min prior to analysis by flow cytometry.

[5] = test system: LO2 cells; assay: MTT anti-proliferative assay, LO2; format: cell-based; conditions: normal human liver cells, Table 2 prints no unit, μM
Experimental: All cell lines were purchased from Cell Bank of Shanghai Institute of Biochemistry and Cell Biology, Chinese Academy of Sciences (Shanghai, China). Human breast carcinoma cells (MCF-7 and MCF-7/DOX), breast epithelial cells (MCF-10A) and normal human liver cells (LO2) were maintained in RPMI-1640 medium. All cells were supplemented with 12% fetal bovine serum containing 50 μg/ml penicillin and 50 μg/ml streptomycin. Cells were grown to 80% confluency in a tissue culture flask at 37 °C in a humidified atmosphere containing 5% CO2, and then were trypsinized with 1 × Trypsin-Versene and split. The MCF-7/DOX cell line we used was established from its parental cell line MCF-7 cell by gradually increasing the concentration of DOX to which the cells were exposed in a stepwise manner over a period of 8 months. […] The cells were incubated in drug-free medium for at least 1 week before use.
Cells (MCF-7, MCF-7/DOX, MCF-10A, LO2) were seeded in 96-well plates at a density of 3,000–6,000 cells per well. The cells were incubated overnight (16 h) in a humidified 5% CO2 incubator at 37 °C. After media removal, different concentrations of test compounds were added in triplicate to the plates in 200 μL of fresh media and were incubated with the cells at 37 °C for 48 h. […] Cell viability was evaluated using 3-(4, 5-dimethylthiazolyl)-2,5-diphenyltetrazoliumbromide (MTT). The absorbance was read by an ELISA reader (SpectraMax Plus384, Molecular Devices, Sunnyvale, CA) at a test wavelength of 570 nm and a reference wavelength of 630 nm. Cell viability was calculated using the following formula: […]

[6] = test system: MCF-7/DOX cells; assay: Annexin V-APC/7-AAD flow cytometry of apoptosis, MCF-7/DOX; format: cell-based, human; conditions: 24 h
Experimental: MCF-7, MCF-7/DOX or MCF-10A cells, at a density of 2.5 × 10^5 cells per well, were cultured in regular growth medium in 6-well plates for 24 h and treated in duplicate with different concentrations of 6b or curcumin for 24 h. The cells were harvested, washed and stained with 5 μL of Annexin V-APC and 5 μL of 7-AAD at room temperature for 15 min. Cells were then analyzed by flow cytometry (488 nm excitation and 600 nm emission filters) using a BD FACSCalibur flow cytometer (Becton & Dickinson Company, Franklin Lakes, NJ).

[7] = test system: MCF-7/DOX cells; assay: Flow cytometry of the cell cycle, MCF-7/DOX; format: cell-based, human; conditions: 24 h
Experimental: as §1

COc1ccc(/C=C/C(=O)N2CCN(C(=O)C3=Cc4cc(Br)ccc4S3(=O)=O)CC2)cc1 [Compound 6b, (E)-1-(4-(5-bromo-1,1-dioxidobenzo[b]thiophene-2-carbonyl)piperazin-1-yl)-3-(4-methoxyphenyl)prop-2-en-1-one]
Ki-67 immunohistochemical staining in tumor tissues [1]: suppressed tumor cell proliferation
TUNEL assay of tumor cells [1]: induced tumor cell apoptosis
changes in the body weights of the mice [1]: no significant changes
reduction of the weight of the tumor tissues compared with the control [1]: 68.2%
p-STAT3 in lysates from the tumor tissues (immunoblotting) ([1]; vs control tumors): suppression of p-STAT3
volumes of the implanted human breast tumors ([1]; vs vehicle): significantly reduced
increase of ROS levels [2]: 2–8 fold
cleavage of PARP, Caspase 9 and Caspase 3 ([3]; MCF-7 and MCF-7/DOX cells): induced the cleavage
cleaved PARP ([3]; MCF-10A cells, concentrations up to 4 μM): little
cells in the Sub-G1 phase [4]: significant increase
percentage of cells in S phase [4]: increased
IC50 ([5]; 48 h): 8.31 ± 0.41 µM
IC50 ([5]; Homo sapiens, L02, 48 h): 8.3 µM
apoptosis rate ([6]; 1 μM): 18.5%
apoptosis rate ([6]; 2 μM): 50.1%
apoptosis rate ([6]; 4 μM): 66.4%
cells in the Sub-G1 phase [7]: significant increase
percentage of cells in the G0/G1 phase [7]: increased
